Publication PMC6720883, “In Vitro Inhibitory Effects of APINACA on Human Major Cytochrome P450, UDP-Glucuronosyltransferase Enzymes, and Drug Transporters” (Molecules, 2019)
pIC50, pKi: −log10 of the molar value.

What was measured:
P-glycoprotein (P-gp) = P-glycoprotein (P-gp) (Homo sapiens, UniProt P08183); assay: B to A transport of [3-H]digoxin in LLC-PK1-MDR1 cells; conditions: for Transport Rate (pmol/min) (mean ± SD): 0.1 μM probe substrate, B to A, n=3
Method: The cells were seeded onto filter membranes at a density of 2 × 10^5 cells/well for 5 days with TEER values over 450 Ω·cm^2. The B to A transport of 0.1 μM [3-H]digoxin in LLC-PK1-MDR1 cells was measured by adding 1.5 mL of HBSS containing APINACA (final concentrations of 0–100 μM) on the basal side and by adding 0.5 mL of HBSS without APINACA on the apical side of the insert using protocols identical to those described above.
(§1) 1.1 (Systat Software, Inc.).

BCRP = target: T1, BCRP (Homo sapiens, UniProt Q9UNQ0); assay: B to A transport of [3-H]estrone-3-sulfate in LLC-PK1-BCRP cells; format: in vitro ADME; conditions: for Transport Rate (pmol/min) (mean ± SD): 0.1 μM probe substrate, B to A, n=3
T1 sequence (Q9UNQ0 1-655): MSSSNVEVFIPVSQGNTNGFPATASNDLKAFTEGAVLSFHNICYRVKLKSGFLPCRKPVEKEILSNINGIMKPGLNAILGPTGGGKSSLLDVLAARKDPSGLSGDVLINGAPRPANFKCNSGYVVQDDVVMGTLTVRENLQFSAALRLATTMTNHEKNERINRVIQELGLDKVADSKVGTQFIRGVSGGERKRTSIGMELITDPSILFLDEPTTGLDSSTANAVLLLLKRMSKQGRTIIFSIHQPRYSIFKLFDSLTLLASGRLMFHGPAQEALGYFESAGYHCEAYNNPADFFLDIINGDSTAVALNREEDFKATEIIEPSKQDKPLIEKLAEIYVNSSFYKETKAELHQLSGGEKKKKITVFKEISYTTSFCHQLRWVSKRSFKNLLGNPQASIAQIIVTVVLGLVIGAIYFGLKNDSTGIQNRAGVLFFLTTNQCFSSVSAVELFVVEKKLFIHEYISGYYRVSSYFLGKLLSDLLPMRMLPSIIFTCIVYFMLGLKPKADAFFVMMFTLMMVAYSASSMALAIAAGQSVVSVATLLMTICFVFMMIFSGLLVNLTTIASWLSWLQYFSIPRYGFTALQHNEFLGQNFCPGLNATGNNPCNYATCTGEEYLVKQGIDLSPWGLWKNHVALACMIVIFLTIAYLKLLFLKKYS

OAT3 = target: T2, OAT3 (Homo sapiens, UniProt Q8TCC7); assay: Uptake of [3-H]estrone-3-sulfate in HEK293-OAT3 cells; format: in vitro ADME; conditions: for Transport Rate (pmol/min) (mean ± SD): 0.1 μM probe substrate, n=3
T2 construct: host or cells: HEK293 (transient overexpression)
T2 sequence (Q8TCC7 1-542): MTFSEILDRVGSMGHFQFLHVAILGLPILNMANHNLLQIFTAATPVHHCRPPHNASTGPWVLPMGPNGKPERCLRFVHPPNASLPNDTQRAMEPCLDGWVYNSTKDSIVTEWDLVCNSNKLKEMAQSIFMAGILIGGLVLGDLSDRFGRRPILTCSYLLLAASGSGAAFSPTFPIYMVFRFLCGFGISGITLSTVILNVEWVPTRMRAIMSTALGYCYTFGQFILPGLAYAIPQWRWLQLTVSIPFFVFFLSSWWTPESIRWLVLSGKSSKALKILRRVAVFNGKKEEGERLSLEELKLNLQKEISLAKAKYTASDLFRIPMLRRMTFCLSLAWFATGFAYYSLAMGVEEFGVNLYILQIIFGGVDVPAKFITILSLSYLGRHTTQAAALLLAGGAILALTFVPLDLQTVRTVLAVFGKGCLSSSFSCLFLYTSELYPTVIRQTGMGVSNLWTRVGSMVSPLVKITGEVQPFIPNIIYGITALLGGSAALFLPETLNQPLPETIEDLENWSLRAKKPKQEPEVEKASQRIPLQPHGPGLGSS
Method: The concentrations and probe substrates were selected as follows: 0.1 μM [3-H]MPP^+ (for OCT1 and OCT2), 0.1 μM [3-H]PAH (for OAT1), 0.1 μM [3-H]ES (for OAT3 and OATP1B1), and 0.1 μM [3-H]EG (for OATP1B3).
as §1

OATP1B1 = target: T3, OATP1B1 (Homo sapiens, UniProt Q9Y6L6); assay: Uptake of [3-H]estrone-3-sulfate in HEK293-OATP1B1 cells; format: in vitro ADME; conditions: for Transport Rate (pmol/min) (mean ± SD): 0.1 μM probe substrate, n=3
T3 construct: host or cells: HEK293 (transient overexpression)
T3 sequence (Q9Y6L6 1-691): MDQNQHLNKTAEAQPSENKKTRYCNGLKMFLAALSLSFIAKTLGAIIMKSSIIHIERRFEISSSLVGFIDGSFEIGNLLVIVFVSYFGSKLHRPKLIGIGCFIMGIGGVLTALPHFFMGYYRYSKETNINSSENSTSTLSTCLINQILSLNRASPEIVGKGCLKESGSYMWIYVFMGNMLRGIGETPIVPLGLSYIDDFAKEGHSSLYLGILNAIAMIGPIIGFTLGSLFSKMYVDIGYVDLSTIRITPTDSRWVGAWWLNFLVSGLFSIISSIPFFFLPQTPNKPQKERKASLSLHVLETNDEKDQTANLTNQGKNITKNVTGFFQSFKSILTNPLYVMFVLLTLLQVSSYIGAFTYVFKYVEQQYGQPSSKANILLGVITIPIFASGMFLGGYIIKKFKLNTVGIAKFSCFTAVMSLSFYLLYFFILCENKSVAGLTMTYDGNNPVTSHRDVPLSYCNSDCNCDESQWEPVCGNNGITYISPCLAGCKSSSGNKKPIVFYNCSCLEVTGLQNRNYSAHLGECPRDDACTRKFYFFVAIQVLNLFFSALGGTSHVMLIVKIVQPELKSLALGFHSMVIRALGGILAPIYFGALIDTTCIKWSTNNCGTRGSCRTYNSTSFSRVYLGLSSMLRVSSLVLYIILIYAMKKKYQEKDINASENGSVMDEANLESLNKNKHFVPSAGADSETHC
Method: (§2) To examine the effects of APINACA and typical inhibitors on transporter activity, the uptake of a probe substrate into HEK293 cells overexpressing the respective solute carrier transporters was measured in the presence of APINACA (final concentrations of 0–250 μM) or typical inhibitors for 5 min. The concentrations and probe substrates were selected as follows: 0.1 μM [3-H]MPP^+ (for OCT1 and OCT2), 0.1 μM [3-H]PAH (for OAT1), 0.1 μM [3-H]ES (for OAT3 and OATP1B1), and 0.1 μM [3-H]EG (for OATP1B3).
(§3) 12.5 (Systat Software, Inc.; San Jose, CA, USA). […] 1.1 (Systat Software, Inc.).

OCT2 = target: T4, OCT2 (Homo sapiens, UniProt O15244); assay: Uptake of [3-H]methyl-4-phenylpyridinium in HEK293-OCT2 cells; format: in vitro ADME; conditions: for Transport Rate (pmol/min) (mean ± SD): 0.1 μM probe substrate, n=3
T4 construct: host or cells: HEK293 (transient overexpression)
T4 sequence (O15244 1-555): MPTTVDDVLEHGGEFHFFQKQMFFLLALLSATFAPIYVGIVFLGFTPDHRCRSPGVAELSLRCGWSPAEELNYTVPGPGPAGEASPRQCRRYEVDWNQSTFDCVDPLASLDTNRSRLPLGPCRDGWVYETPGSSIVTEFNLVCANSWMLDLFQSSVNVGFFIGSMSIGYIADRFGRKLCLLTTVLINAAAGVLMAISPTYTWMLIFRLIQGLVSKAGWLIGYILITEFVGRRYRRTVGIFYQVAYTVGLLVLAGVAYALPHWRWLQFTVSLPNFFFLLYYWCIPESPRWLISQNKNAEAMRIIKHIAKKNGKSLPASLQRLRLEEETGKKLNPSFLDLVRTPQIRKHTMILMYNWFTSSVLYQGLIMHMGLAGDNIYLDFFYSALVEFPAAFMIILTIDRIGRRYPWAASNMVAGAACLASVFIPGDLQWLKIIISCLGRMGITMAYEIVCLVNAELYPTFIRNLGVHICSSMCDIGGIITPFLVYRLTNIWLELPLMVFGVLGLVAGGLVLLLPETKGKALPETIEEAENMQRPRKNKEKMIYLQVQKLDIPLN
Method: as §2, §3

UGT1A9 = target: T5, UGT1A9 (Homo sapiens, UniProt O60656); conditions: read-out: Ki for inhibition of UGT1A9 activities; recombinant and human liver microsomal UGT1A9; cited from earlier work
T5 sequence (O60656 26-530): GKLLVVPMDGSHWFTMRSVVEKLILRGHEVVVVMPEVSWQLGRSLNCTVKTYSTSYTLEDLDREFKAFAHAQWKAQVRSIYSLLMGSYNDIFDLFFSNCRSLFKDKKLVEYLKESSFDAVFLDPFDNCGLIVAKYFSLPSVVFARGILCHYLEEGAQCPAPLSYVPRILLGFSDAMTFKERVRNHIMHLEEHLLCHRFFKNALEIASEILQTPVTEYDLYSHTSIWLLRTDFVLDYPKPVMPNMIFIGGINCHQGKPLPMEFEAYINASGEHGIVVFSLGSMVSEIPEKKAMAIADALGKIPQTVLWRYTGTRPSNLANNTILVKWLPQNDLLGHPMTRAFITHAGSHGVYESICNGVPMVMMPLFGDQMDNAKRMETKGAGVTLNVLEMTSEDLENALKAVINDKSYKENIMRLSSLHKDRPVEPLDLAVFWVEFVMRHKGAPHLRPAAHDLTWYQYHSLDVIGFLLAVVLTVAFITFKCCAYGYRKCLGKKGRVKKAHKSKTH

OCT1 = target: T6, OCT1 (Homo sapiens, UniProt O15245); assay: Uptake of [3-H]methyl-4-phenylpyridinium in HEK293-OCT1 cells; format: in vitro ADME; conditions: for Transport Rate (pmol/min) (mean ± SD): 0.1 μM probe substrate, n=3
T6 construct: host or cells: HEK293 (transient overexpression)
T6 sequence (O15245 1-554): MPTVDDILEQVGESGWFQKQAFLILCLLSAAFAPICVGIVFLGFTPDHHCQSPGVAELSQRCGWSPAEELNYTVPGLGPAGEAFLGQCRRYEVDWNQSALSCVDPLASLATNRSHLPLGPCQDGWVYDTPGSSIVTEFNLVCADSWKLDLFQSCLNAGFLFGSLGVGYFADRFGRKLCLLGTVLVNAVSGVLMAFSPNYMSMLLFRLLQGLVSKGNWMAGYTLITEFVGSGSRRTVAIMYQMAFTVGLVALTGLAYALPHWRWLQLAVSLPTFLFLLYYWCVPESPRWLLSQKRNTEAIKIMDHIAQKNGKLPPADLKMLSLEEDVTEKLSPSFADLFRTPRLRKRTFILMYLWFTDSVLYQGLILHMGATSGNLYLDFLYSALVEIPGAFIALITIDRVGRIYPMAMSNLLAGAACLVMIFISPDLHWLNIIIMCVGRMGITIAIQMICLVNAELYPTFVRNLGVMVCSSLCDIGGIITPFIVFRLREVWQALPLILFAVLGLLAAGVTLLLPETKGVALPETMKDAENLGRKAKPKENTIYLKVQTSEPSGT
Method: as §2, §3

P-glycoprotein (P-gp), sequence (P08183 whole entry): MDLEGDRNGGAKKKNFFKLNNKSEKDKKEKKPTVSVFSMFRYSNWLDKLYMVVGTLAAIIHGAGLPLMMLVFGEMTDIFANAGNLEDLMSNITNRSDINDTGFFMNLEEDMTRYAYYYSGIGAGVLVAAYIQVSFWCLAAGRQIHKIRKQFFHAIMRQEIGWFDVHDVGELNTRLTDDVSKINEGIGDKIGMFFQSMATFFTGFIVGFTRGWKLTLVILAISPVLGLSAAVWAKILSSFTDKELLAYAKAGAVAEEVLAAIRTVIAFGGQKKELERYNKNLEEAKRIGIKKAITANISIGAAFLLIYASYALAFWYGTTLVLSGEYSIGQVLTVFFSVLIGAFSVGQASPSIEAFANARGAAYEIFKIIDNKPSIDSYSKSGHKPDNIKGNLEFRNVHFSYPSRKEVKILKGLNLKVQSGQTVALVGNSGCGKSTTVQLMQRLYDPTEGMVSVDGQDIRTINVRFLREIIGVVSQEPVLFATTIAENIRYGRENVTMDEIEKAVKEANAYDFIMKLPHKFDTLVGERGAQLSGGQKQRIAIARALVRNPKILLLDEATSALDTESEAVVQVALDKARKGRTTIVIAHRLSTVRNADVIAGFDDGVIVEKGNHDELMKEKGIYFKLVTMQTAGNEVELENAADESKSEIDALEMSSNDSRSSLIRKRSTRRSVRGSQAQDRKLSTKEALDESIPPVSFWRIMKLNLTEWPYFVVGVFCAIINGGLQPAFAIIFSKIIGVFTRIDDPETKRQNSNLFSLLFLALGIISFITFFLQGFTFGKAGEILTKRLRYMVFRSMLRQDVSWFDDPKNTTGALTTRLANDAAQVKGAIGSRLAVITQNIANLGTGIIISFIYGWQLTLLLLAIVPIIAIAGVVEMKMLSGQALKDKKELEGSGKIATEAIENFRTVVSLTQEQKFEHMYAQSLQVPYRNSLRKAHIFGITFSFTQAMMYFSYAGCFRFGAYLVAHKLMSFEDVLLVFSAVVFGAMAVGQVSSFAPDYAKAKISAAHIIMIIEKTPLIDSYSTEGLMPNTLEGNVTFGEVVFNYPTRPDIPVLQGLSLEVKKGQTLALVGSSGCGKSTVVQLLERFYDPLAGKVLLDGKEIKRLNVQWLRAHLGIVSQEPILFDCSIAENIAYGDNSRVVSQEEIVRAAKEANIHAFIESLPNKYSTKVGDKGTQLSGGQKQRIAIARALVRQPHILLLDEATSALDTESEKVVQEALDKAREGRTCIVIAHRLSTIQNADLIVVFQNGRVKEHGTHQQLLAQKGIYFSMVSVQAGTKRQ

With C[C@H]1O[C@@H](O[C@H]2[C@@H](O)C[C@H](O[C@H]3[C@@H](O)C[C@H](O[C@H]4CC[C@@]5(C)[C@H](CC[C@@H]6[C@@H]5C[C@@H](O)[C@]5(C)[C@@H](C7=CC(=O)OC7)CC[C@]65O)C4)O[C@@H]3C)O[C@@H]2C)C[C@H](O)[C@@H]1O [Digoxin] the “Fold Increase of transport rate” value (P-glycoprotein (P-gp); LLC-PK1-MDR1 versus Mock) was 7.3, the “Transport Rate (pmol/min) (mean ± SD)” value (P-glycoprotein (P-gp); LLC-PK1 Mock cells (comparison for MDR1)) was 0.14 ± 0.02 pmol/min and the “Transport Rate (pmol/min) (mean ± SD)” value (P-glycoprotein (P-gp); LLC-PK1 cells overexpressing MDR1 (P-gp)) was 1.06 ± 0.07 pmol/min.
With C[C@]12CC[C@@H]3c4ccc(OS(=O)(=O)O)cc4CC[C@H]3[C@@H]1CCC2=O [Estrone-3-sulfate] the “Fold Increase of transport rate” value (BCRP; LLC-PK1-BCRP versus Mock) was 4.7, the “Transport Rate (pmol/min) (mean ± SD)” value (BCRP; LLC-PK1 Mock cells (comparison for BCRP)) was 0.44 ± 0.07 pmol/min and the “Transport Rate (pmol/min) (mean ± SD)” value (BCRP; LLC-PK1 cells overexpressing BCRP) was 2.09 ± 0.12 pmol/min. For the same compound, the “Fold Increase of transport rate” value (OAT3; HEK293-OAT3 versus Mock) was 15.3, the “Transport Rate (pmol/min) (mean ± SD)” value (OAT3; HEK293 Mock cells (comparison for OAT3)) was 0.98 ± 0.20 pmol/min and the “Transport Rate (pmol/min) (mean ± SD)” value (OAT3; HEK293 cells overexpressing OAT3) was 14.96 ± 3.09 pmol/min. The “Fold Increase of transport rate” value (OATP1B1; HEK293-OATP1B1 versus Mock) was 16.5, the “Transport Rate (pmol/min) (mean ± SD)” value (OATP1B1; HEK293 Mock cells (comparison for OATP1B1)) was 0.76 ± 0.04 pmol/min and the “Transport Rate (pmol/min) (mean ± SD)” value (OATP1B1; HEK293 cells overexpressing OATP1B1) was 12.58 ± 1.57 pmol/min.
CN/C(=N/CCSCc1nc[nH]c1C)NC#N [Cimetidine] showed a pIC50 (OCT2; HEK293-OCT2 cells, 0.1 μM [3-H]methyl-4-phenylpyridinium, 5 min uptake, read-out: IC50 for inhibition of OCT2 transport) of 3.71.
In the case of CCOc1ccc(Cc2cc([C@@H]3O[C@H](CO)[C@@H](O)[C@H](O)[C@H]3O)ccc2Cl)cc1 [dapagliflozin], the pKi (UGT1A9) is listed as 4.82 to 4.96.
For C[n+]1ccc(-c2ccccc2)cc1 [Methyl-4-phenylpyridinium], the “Fold Increase of transport rate” value (OCT2; HEK293-OCT2 versus Mock) was 25.5, the “Transport Rate (pmol/min) (mean ± SD)” value (OCT2; HEK293 Mock cells (comparison for OCT2)) was 0.66 ± 0.11 pmol/min and the “Transport Rate (pmol/min) (mean ± SD)” value (OCT2; HEK293 cells overexpressing OCT2) was 16.78 ± 0.43 pmol/min. For the same compound, the “Fold Increase of transport rate” value (OCT1; HEK293-OCT1 versus Mock) was 17.1, the “Transport Rate (pmol/min) (mean ± SD)” value (OCT1; HEK293 Mock cells (comparison for OCT1)) was 0.60 ± 0.09 pmol/min and the “Transport Rate (pmol/min) (mean ± SD)” value (OCT1; HEK293 cells overexpressing OCT1) was 10.24 ± 0.98 pmol/min.
With O=C(O)c1cc(/N=N/c2ccc(S(=O)(=O)Nc3ccccn3)cc2)ccc1O [sulfasalazine] the pIC50 (BCRP; human, LLC-PK1-BCRP cell monolayers on filter membranes, probe [3H]estrone-3-sulfate (0.1 μM), LLC-PK1-BCRP cells, B to A transport of 0.1 μM [3-H]estrone-3-sulfate, read-out: IC50 for inhibition of BCRP transport) was 6.41.
